Legend:
MAGL [1] = molecular target: T1, MAGL (Mus musculus, UniProt O35678); experiment: Mouse brain proteomes from inhibitor treated mice (oral gavage, sacrificed 4 h after administration); format: in vivo; conditions: read-out: MAGL % inh. 5 mg/kg
T1 construct: Proteomes (mouse brain membrane fraction or cell lysates); from tissue; host or cells: mouse brain membrane fraction (or cell lysates)
T1 sequence (O35678 1-303): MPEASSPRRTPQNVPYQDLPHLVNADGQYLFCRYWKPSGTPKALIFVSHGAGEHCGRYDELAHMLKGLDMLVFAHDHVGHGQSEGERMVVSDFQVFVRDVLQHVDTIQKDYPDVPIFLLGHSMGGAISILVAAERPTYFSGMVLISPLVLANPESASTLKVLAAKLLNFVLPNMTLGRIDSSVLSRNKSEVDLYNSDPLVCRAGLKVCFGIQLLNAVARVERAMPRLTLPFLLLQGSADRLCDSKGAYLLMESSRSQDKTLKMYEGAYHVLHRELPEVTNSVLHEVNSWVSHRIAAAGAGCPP
Description: Compounds are tested to assess their MAGL and other serine hydrolase activity using the following in vitro and in vivo assays.
Preparation of Mouse Brain Proteomes from Inhibitor Treated Mice.
Inhibitors were administered to wild-type C57Bl/6J by oral gavage in a vehicle of polyethylene glycol. Each animal was sacrificed 4 h following administration and brain proteomes were prepared and analyzed according to previously established methods (See Niphakis, M. J., et al. (2011) ACS Chem. Neurosci. and Long, J. Z., et al. Nat. Chem. Biol. 5:37-44)

MAGL [2] = molecular target: T1, MAGL; experiment: In vitro competitive activity-based protein profiling (mouse), MAGL gel band; format: biochemical; conditions: for IC50: mouse; for inhibition at 1 µM: read-out: MAGL % inh. 1 μM
Outline: (§1)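 Competitive ABPP: inhibitors at varying concentrations were given 30 min at 37 °C with mouse brain membranes or cell lysates (1.0 mg/mL total protein) before 30 min labelling by FP-Rh or HT-01 (stock 50 μM in DMSO). Residual hydrolase activity read as in-gel fluorescence of MAGL and FAAH bands.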

FAAH = molecular target: T2, FAAH (Mus musculus, UniProt O08914); experiment: In vitro competitive activity-based protein profiling (mouse), FAAH gel band; format: biochemical; conditions: for IC50: mouse; for inhibition at 1 µM: read-out: FAAH % inh. 1 μM
T2 construct: Proteomes (mouse brain membrane fraction or cell lysates); from tissue; host or cells: mouse brain membrane fraction (or cell lysates)
T2 sequence (O08914 1-579): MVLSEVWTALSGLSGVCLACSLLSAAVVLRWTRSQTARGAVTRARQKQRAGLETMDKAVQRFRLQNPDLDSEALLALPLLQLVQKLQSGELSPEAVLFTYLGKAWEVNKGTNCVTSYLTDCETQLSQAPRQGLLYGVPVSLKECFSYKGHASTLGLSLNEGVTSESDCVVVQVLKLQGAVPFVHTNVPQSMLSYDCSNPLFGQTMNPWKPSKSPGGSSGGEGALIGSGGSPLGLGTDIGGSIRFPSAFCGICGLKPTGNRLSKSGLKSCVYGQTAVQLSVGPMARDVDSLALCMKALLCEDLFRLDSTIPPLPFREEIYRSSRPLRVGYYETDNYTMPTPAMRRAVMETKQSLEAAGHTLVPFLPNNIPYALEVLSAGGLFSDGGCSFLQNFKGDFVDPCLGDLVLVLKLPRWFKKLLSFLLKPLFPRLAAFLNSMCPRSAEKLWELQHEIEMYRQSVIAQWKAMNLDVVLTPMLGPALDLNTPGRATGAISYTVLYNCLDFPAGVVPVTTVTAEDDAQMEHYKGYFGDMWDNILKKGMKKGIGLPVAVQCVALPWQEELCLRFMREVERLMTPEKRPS
Outline: as §1

inhibition at 5 mg/kg (MAGL [1])	IC50 (MAGL [2])	inhibition at 1 µM (MAGL [2])	IC50 (FAAH)	inhibition at 1 µM (FAAH)	SMILES
0 to 25%	≤ 0.1 µM	≥ 75%	1 to 10 µM	0 to 25%	CC(=O)Nc1ccn(C(=O)N2CCN(Cc3ccc(Cl)cc3N3CCC4(C3)CN(S(C)(=O)=O)C4)CC2)n1 [Example 55, N-(1-(4-(4-chloro-2-(2-(methylsulfonyl)-2,6-diazaspiro[3.4]octan-6-yl)benzyl)piperazine-1-carbonyl)-1H-pyrazol-3-yl)acetamide]
25 to 50%	≤ 0.1 µM	≥ 75%	1 to 10 µM	0 to 25%	CC(=O)Nc1ccn(C(=O)N2CCN(Cc3ccc(Cl)cc3N3CCC4(CCOCC4)C3)CC2)n1 [Example 56, N-(1-(4-(4-chloro-2-(8-oxa-2-azaspiro[4.5]decan-2-yl)benzyl)piperazine-1-carbonyl)-1H-pyrazol-3-yl)acetamide]
≥ 75%	≤ 0.1 µM	≥ 75%	1 to 10 µM	0 to 25%	CC(=O)Nc1ccn(C(=O)N2CCN(Cc3ccc(Cl)cc3N3CCN(C4CC4)CC3)CC2)n1 [Example 58, N-(1-(4-(4-chloro-2-(4-cyclopropylpiperazin-1-yl)benzyl)piperazine-1-carbonyl)-1H-pyrazol-3-yl)acetamide]
0 to 25%	≤ 0.1 µM	≥ 75%	1 to 10 µM	0 to 25%	CC(=O)Nc1ccn(C(=O)N2CCN(Cc3ccc(Cl)cc3N3CC4COCC4C3)CC2)n1 (centres unmarked) [Example 60, N-(1-(4-(4-chloro-2-(dihydro-1H-furo[3,4-c]pyrrol-5(3H,6H,6aH)-yl)benzyl)piperazine-1-carbonyl)-1H-pyrazol-3-yl)acetamide]
0 to 25%	≤ 0.1 µM	≥ 75%	1 to 10 µM	0 to 25%	CC(=O)Nc1ccn(C(=O)N2CCC3(CCCN3Cc3cc(N4CCCC4)cc(C(F)(F)F)c3)CC2)n1 [Example 61, N-(1-(1-(3-(pyrrolidin-1-yl)-5-(trifluoromethyl)benzyl)-1,8-diazaspiro[4.5]decane-8-carbonyl)-1H-pyrazol-3-yl)acetamide]
25 to 50%	≤ 0.1 µM	≥ 75%	1 to 10 µM	0 to 25%	CC(=O)Nc1ccn(C(=O)N2CCC3(CCCN3Cc3cc(Cl)cc(N4CCCC4)c3)CC2)n1 [Example 63, N-(1-(1-(3-chloro-5-(pyrrolidin-1-yl)benzyl)-1,8-diazaspiro[4.5]decane-8-carbonyl)-1H-pyrazol-3-yl)acetamide]
0 to 25%	0.1 to 1 µM	≥ 75%	1 to 10 µM	0 to 25%	CC(=O)Nc1ccn(C(=O)N2CCC3(CCCN3Cc3cc(N4CC5CN(C(C)=O)CC5C4)cc(C(F)(F)F)c3)CC2)n1 (centres unmarked) [Example 69, N-(1-(1-(3-(5-acetylhexahydropyrrolo[3,4-c]pyrrol-2(1H)-yl)-5-(trifluoromethyl)benzyl)-1,8-diazaspiro[4.5]decane-8-carbonyl)-1H-pyrazol-3-yl)acetamide]
25 to 50%	≤ 0.1 µM	≥ 75%	1 to 10 µM	0 to 25%	CC(=O)Nc1ccn(C(=O)N2CCN(Cc3ccc(C(F)(F)F)cc3OC3CCN(C4CC4)CC3)CC2)n1 [Example 71, N-(1-(4-(2-(1-cyclopropylpiperidin-4-yloxy)-4-(trifluoromethyl)benzyl)piperazine-1-carbonyl)-1H-pyrazol-3-yl)acetamide]
0 to 25%	≤ 0.1 µM	≥ 75%	1 to 10 µM	0 to 25%	CC(=O)Nc1ccn(C(=O)N2CCN(Cc3cc(OC4CCN(C5CC5)CC4)cc(C(F)(F)F)c3)CC2)n1 [Example 72, N-(1-(4-(3-(1-cyclopropylpiperidin-4-yloxy)-5-(trifluoromethyl)benzyl)piperazine-1-carbonyl)-1H-pyrazol-3-yl)acetamide]
0 to 25%	≤ 0.1 µM	≥ 75%	1 to 10 µM	0 to 25%	CC(=O)Nc1ccn(C(=O)N2CCN(Cc3ccc(C(F)(F)F)cc3Oc3cncnc3)CC2)n1 [Example 73, N-(1-(4-(2-(pyrimidin-5-yloxy)-4-(trifluoromethyl)benzyl)piperazine-1-carbonyl)-1H-pyrazol-3-yl)acetamide]
25 to 50%	≤ 0.1 µM	≥ 75%	1 to 10 µM	0 to 25%	CC(=O)Nc1ccn(C(=O)N2CCN(Cc3cc(Oc4cncnc4)cc(C(F)(F)F)c3)CC2)n1 [Example 74, N-(1-(4-(3-(pyrimidin-5-yloxy)-5-(trifluoromethyl)benzyl)piperazine-1-carbonyl)-1H-pyrazol-3-yl)acetamide]
0 to 25%	≤ 0.1 µM	≥ 75%	1 to 10 µM	0 to 25%	CC(=O)Nc1ccn(C(=O)N2CCN(Cc3cc(OC4CCS(=O)(=O)CC4)cc(C(F)(F)F)c3)CC2)n1 [Example 78, N-(1-(4-(3-((1,1-dioxidotetrahydro-2H-thiopyran-4-yl)oxy)-5-(trifluoromethyl)benzyl)piperazine-1-carbonyl)-1H-pyrazol-3-yl)acetamide]
0 to 25%	≤ 0.1 µM	≥ 75%	1 to 10 µM	0 to 25%	CC(=O)Nc1ccn(C(=O)N2CCN(Cc3ccc(C(F)(F)F)cc3OCC(=O)N3CCCC3)CC2)n1 [Example 79, N-(1-(4-(2-(2-oxo-2-(pyrrolidin-1-yl)ethoxy)-4-(trifluoromethyl)benzyl)piperazine-1-carbonyl)-1H-pyrazol-3-yl)acetamide]
0 to 25%	≤ 0.1 µM	≥ 75%	1 to 10 µM	0 to 25%	CC(=O)Nc1ccn(C(=O)N2CCN(Cc3cc(OCC(=O)N4CCCC4)cc(C(F)(F)F)c3)CC2)n1 [Example 80, N-(1-(4-(3-(2-oxo-2-(pyrrolidin-1-yl)ethoxy)-5-(trifluoromethyl)benzyl)piperazine-1-carbonyl)-1H-pyrazol-3-yl)acetamide]
0 to 25%	≤ 0.1 µM	≥ 75%	1 to 10 µM	0 to 25%	CC(=O)Nc1ccn(C(=O)N2CCC3(CCCN3Cc3ccc(C(F)(F)F)cc3OC3CCN(C4CC4)CC3)CC2)n1 [Example 81, N-(1-(1-(2-(1-cyclopropylpiperidin-4-yloxy)-4-(trifluoromethyl)benzyl)-1,8-diazaspiro[4.5]decane-8-carbonyl)-1H-pyrazol-3-yl)acetamide]

SMILES	inhibition at 5 mg/kg (MAGL [1])	IC50 (MAGL [2])	inhibition at 1 µM (MAGL [2])	IC50 (FAAH)	inhibition at 1 µM (FAAH)
CC(=O)Nc1ccn(C(=O)N2CCC3(CCCN3Cc3cc(N4C5CCC4COC5)cc(C(F)(F)F)c3)CC2)n1 [Example 62, N-(1-(1-(3-(3-oxa-8-azabicyclo[3.2.1]octan-8-yl)-5-(trifluoromethyl)benzyl)-1,8-diazaspiro[4.5]decane-8-carbonyl)-1H-pyrazol-3-yl)acetamide]	0 to 25%	≤ 0.1 µM	≥ 75%	1 to 10 µM	0 to 25%
